The text below walks through data of paper PMC9828517 (Angewandte Chemie (International Ed. in English), 2022).

The assay has as its target T1, recombinant SIRT5 (His-tagged, Millipore) (Homo sapiens, UniProt Q9NXA8).
T1 sequence (Q9NXA8 37-310): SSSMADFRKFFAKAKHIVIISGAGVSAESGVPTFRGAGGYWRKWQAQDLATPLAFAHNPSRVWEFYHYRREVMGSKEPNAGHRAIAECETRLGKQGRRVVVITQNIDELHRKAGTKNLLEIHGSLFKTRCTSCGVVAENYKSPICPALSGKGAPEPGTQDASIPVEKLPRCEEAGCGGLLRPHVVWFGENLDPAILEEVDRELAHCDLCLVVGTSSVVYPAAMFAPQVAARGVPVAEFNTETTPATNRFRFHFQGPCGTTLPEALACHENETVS
Nature of the assay: Mass spectrometry determination of covalent labeling. Format: binding. The settings on record: Tris buffer pH 8, 24 h room temperature (7, 8: 37 °C, 48 h).
As for `O=C(NC1CCC1)[C@H](Cc1c[nH]c2ccccc12)NC(=O)[C@H](CCCCNC(=S)Nc1ccc(OS(=O)(=O)F)cc1)NS(=O)(=O)c1cccc(F)c1` [compound 8], the “covalent conjugate formation with SIRT5 (MALDI-TOF MS)” value (shortened to “covalent conjugate formation”) is reported as “not significantly enhanced compared to the amide analogs”.

For `O=C(NCCCC[C@H](NS(=O)(=O)c1cccc(F)c1)C(=O)N[C@@H](Cc1c[nH]c2ccccc12)C(=O)NC1CCC1)c1cccc(S(=O)(=O)F)c1` [compound 2], the “covalent conjugate formation” value was “reacted more readily with SIRT5”.

`O=C(NC1CCC1)[C@H](Cc1c[nH]c2ccccc12)NC(=O)[C@H](CCCCNC(=S)Nc1cccc(OS(=O)(=O)F)c1)NS(=O)(=O)c1cccc(F)c1` [compound 7]: the “covalent conjugate formation” value was “not significantly enhanced compared to the amide analogs”.
